Read-outs that look alike come from different tables or passages of the source.
Legend:
[1] = system: monkey liver acylamidase; assay: Susceptibility to monkey liver acylamidase (crude liver extract, 5'-DFCR formed by HPLC); assay type: in vitro ADME; conditions: tetrahydrouridine 0.4 mM, 37° C., 60 min
Experimental: (§1) The N^4 -(substituted-oxycarbonyl)-5'-DFCRs of the invention were incubated with crude extracts of monkey and human liver in the presence of an inhibitor of cytidine deaminase, tetrahydrouridine (0.4 mM) at 37° C. for 60 min. Thereafter, the product 5'-DFCR was separated by HPLC and the enzyme susceptibility was calculated from the amount of the product.

[2] = Pharmacokinetic profiles in monkeys (plasma 5'-DFUR after oral administration); assay type: in vivo; conditions: cynomolgous monkeys, metabolite 5'-DFUR in plasma
Experimental: The compounds of formula (I) were orally administered into groups of 2 to 5 cynomolgous monkeys (3-4 kg). At various times after the administration, plasma was taken for determination of blood concentrations of intact molecules and their active metabolite 5'-DFUR. Metabolites in the plasma were separated by HPLC and their concentrations were calculated.

[3] = system: human liver acylamidase; assay: Susceptibility to human liver acylamidase (crude liver extract, 5'-DFCR formed by HPLC); assay type: in vitro ADME; conditions: tetrahydrouridine 0.4 mM, 37° C., 60 min
Experimental: as §1

[4] = system: CXF280 Human Colon Carcinoma; assay: Antitumor testing against human colon cancer xenograft CXF280; assay type: in vivo, BALB/c nu/nu mice; parameters: key to Fecal observation: N: normal feces; L: loose passage; key to % Growth inhibition: NE: Not Effective; conditions: for inhibition in vivo at 1 mmol/kg/day: Exp. 1, 1.0 mmol/kg/day x 21, oral
Experimental: CXF280 tumor (about 2×2 mm piece) was implanted subcutaneously into BALB/c nu/nu mice (21-22 g) on day 0. When tumor volume became 100 mm^3 on day around 14, the compounds of the invention were orally administered daily for 3 weeks. At one day after the last treatment, tumor volume was calculated.
The percent inhibition of tumor growth given in Table 3 above was calculated from the formula:
% Inhibition ={1-(T-V0)/(C-V0)}×100
V0 =volume of tumor before treatment was started, T=volume of the tumors from the treated group, C=volume of the tumor from the control group.

[5] = Toxicity (LD50), oral administration daily for 21 days in mice; conditions: mouse, in vivo
Experimental: The toxicity (LD50) of the representative compounds (Example 13,14, and 17) of the present invention was examined by oral administration daily for 21 days in mice. The representative LD50 values obtained from the experiments were more than 500 mg/kg/day.

[6] = Exp. 2, 1.5 mmol/kg/day x 21, oral
[7] = Exp. 2, 2.25 mmol/kg/day x 21, oral
[8] = Mus musculus, po, Exp. 2, 0.13 mmol/kg/day x 21, oral, read-out: % Growth inhibition
[9] = Mus musculus, po, Exp. 2, 0.3 mmol/kg/day x 21, oral, read-out: % Growth inhibition
[10] = Mus musculus, po, Exp. 2, 0.67 mmol/kg/day x 21, oral, read-out: % Growth inhibition
[11] = Mus musculus, po, Exp. 2, 1.5 mmol/kg/day x 21, oral, read-out: % Growth inhibition
[12] = Mus musculus, po, Exp. 2, 2.25 mmol/kg/day x 21, oral, read-out: % Growth inhibition
[13] = Exp. 2, 0.089 mmol/kg/day x 21, oral
[14] = Mus musculus, po, Exp. 1, 0.13 mmol/kg/day x 21, oral, read-out: % Growth inhibition
[15] = Exp. 1, 1.5 mmol/kg/day x 21, oral
[16] = Mus musculus, po, Exp. 1, 0.3 mmol/kg/day x 21, oral, read-out: % Growth inhibition
[17] = Mus musculus, po, Exp. 1, 0.67 mmol/kg/day x 21, oral, read-out: % Growth inhibition
[18] = Mus musculus, po, read-out: % Growth inhibition
[19] = Mus musculus, po, Exp. 1, 1.5 mmol/kg/day x 21, oral, read-out: % Growth inhibition

C[C@H]1O[C@@H](n2cc(F)c(NC(=O)OCC(C)(C)C)nc2=O)[C@H](O)[C@@H]1O [Example 28, 5'-deoxy-5-fluoro-N^4-(neopentyloxycarbonyl)cytidine]
Acylamidase activity, Monkey Liver [1]: 25 nmol/mg protein/hr
Plasma 5'-DFUR AUC [2]: 1400 ng·h/mL
Acylamidase activity, Human Liver [3]: 52 nmol/mg protein/hr

CCCCC(CC)COC(=O)Nc1nc(=O)n([C@@H]2O[C@H](C)[C@@H](O)[C@H]2O)cc1F (stereo partly shown) [Example 26, 5'-deoxy-N^4-[(2-ethylhexyl)oxycarbonyl]-5-fluorocytidine]
Acylamidase activity, Monkey Liver [1]: 20 nmol/mg protein/hr
Acylamidase activity, Human Liver [3]: 560 nmol/mg protein/hr

CC(C)CCOC(=O)Nc1nc(=O)n([C@@H]2O[C@H](C)[C@@H](O)[C@H]2O)cc1F [Example 14, 5'-deoxy-5-fluoro-N^4-(isopentyloxycarbonyl)cytidine]
Acylamidase activity, Monkey Liver [1]: 32 nmol/mg protein/hr
Plasma 5'-DFUR AUC [2]: 2400 ng·h/mL
Fecal observation [4, 6]: N
Fecal observation [4, 7]: N
inhibition in vivo at 0.13 mmol/kg/day [4, 8]: 68%
inhibition in vivo at 0.3 mmol/kg/day [4, 9]: 68%
inhibition in vivo at 0.67 mmol/kg/day [4, 10]: 85%
inhibition in vivo at 1.5 mmol/kg/day [4, 11]: 94%
inhibition in vivo at 2.25 mmol/kg/day [4, 12]: 100%
LD50 at 504 h [5]: > 500 mg/kg
Acylamidase activity, Human Liver [3]: 74 nmol/mg protein/hr

C[C@H]1O[C@@H](n2cc(F)c(NC(=O)OCCc3ccccc3)nc2=O)[C@H](O)[C@@H]1O [Example 17, 5'-deoxy-5-fluoro-N^4-[(2-phenylethoxy)carbonyl]cytidine]
Acylamidase activity, Monkey Liver [1]: 22 nmol/mg protein/hr
Plasma 5'-DFUR AUC [2]: 2660 ng·h/mL
LD50 at 504 h [5]: > 500 mg/kg
Acylamidase activity, Human Liver [3]: 160 nmol/mg protein/hr

CCCCOC(=O)Nc1nc(=O)n([C@@H]2O[C@H](C)[C@@H](O)[C@H]2O)cc1F [Example 11, N^4-(butoxycarbonyl)-5'-deoxy-5-fluorocytidine]
Acylamidase activity, Monkey Liver [1]: 20 nmol/mg protein/hr
Plasma 5'-DFUR AUC [2]: 2060 ng·h/mL
Fecal observation [4, 7]: N
inhibition in vivo at 0.13 mmol/kg/day [4, 8]: 46%
inhibition in vivo at 0.3 mmol/kg/day [4, 9]: 72%
inhibition in vivo at 0.67 mmol/kg/day [4, 10]: 84%
inhibition in vivo at 1.5 mmol/kg/day [4, 11]: 95%
inhibition in vivo at 2.25 mmol/kg/day [4, 12]: 100%
Acylamidase activity, Human Liver [3]: 71 nmol/mg protein/hr

C[C@H]1O[C@@H](n2cc(F)c(NC(=O)OCCC3CCCCC3)nc2=O)[C@H](O)[C@@H]1O [Example 20, N^4-[(2-cyclohexylethoxy)carbonyl]-5'-deoxy-5-fluorocytidine]
Acylamidase activity, Monkey Liver [1]: 19 nmol/mg protein/hr
Acylamidase activity, Human Liver [3]: 320 nmol/mg protein/hr

CCCOC(=O)Nc1nc(=O)n([C@@H]2O[C@H](C)[C@@H](O)[C@H]2O)cc1F [Example 10, 5'-deoxy-5-fluoro-N^4-(propoxycarbonyl)cytidine]
Plasma 5'-DFUR AUC [2]: 2030 ng·h/mL
Fecal observation [4, 7]: N
inhibition in vivo at 0.13 mmol/kg/day [4, 8]: 39%
inhibition in vivo at 0.3 mmol/kg/day [4, 9]: 56%
inhibition in vivo at 0.67 mmol/kg/day [4, 10]: 75%
inhibition in vivo at 1.5 mmol/kg/day [4, 11]: 86%
inhibition in vivo at 2.25 mmol/kg/day [4, 12]: 93%

CCC(CC)COC(=O)Nc1nc(=O)n([C@@H]2O[C@H](C)[C@@H](O)[C@H]2O)cc1F [Example 15, 5'-deoxy-N^4-[(2-ethylbutoxy)carbonyl]-5-fluorocytidine]
Acylamidase activity, Monkey Liver [1]: 23 nmol/mg protein/hr
Plasma 5'-DFUR AUC [2]: 2890 ng·h/mL
Acylamidase activity, Human Liver [3]: 210 nmol/mg protein/hr

O=c1[nH]cc(F)c(=O)[nH]1 [Example 5-FU, 5-fluorouracil, reference compound]
Fecal observation ([4]; Exp. 1, 0.089 mmol/kg/day x 21, oral): N
Fecal observation ([4]; Exp. 1, 0.13 mmol/kg/day x 21, oral): N
Fecal observation ([4]; Exp. 1, 0.2 mmol/kg/day x 21, oral): L
% Growth inhibition [4, 13]: NE
Fecal observation [4, 13]: N
Fecal observation ([4]; Exp. 2, 0.13 mmol/kg/day x 21, oral): N
Fecal observation ([4]; Exp. 2, 0.2 mmol/kg/day x 21, oral): L
inhibition in vivo at 0.089 mmol/kg/day ([4]; Mus musculus, po, Exp. 1, 0.089 mmol/kg/day x 21, oral, read-out: % Growth inhibition): 28%
inhibition in vivo at 0.13 mmol/kg/day [4, 14]: 59%
inhibition in vivo at 0.2 mmol/kg/day ([4]; Mus musculus, po, Exp. 1, 0.2 mmol/kg/day x 21, oral, read-out: % Growth inhibition): 79%
inhibition in vivo at 0.13 mmol/kg/day [4, 8]: 20%
inhibition in vivo at 0.2 mmol/kg/day ([4]; Mus musculus, po, Exp. 2, 0.2 mmol/kg/day x 21, oral, read-out: % Growth inhibition): 58%

CC(C)COC(=O)Nc1nc(=O)n([C@@H]2O[C@H](C)[C@@H](O)[C@H]2O)cc1F [Example 24, 5'-deoxy-5-fluoro-N^4-(isobutoxycarbonyl)cytidine]
Acylamidase activity, Monkey Liver [1]: 18 nmol/mg protein/hr
Fecal observation [4, 15]: N
inhibition in vivo at 0.13 mmol/kg/day [4, 14]: 37%
inhibition in vivo at 0.3 mmol/kg/day [4, 16]: 64%
inhibition in vivo at 0.67 mmol/kg/day [4, 17]: 75%
inhibition in vivo at 1 mmol/kg/day [4, 18]: 83%
inhibition in vivo at 1.5 mmol/kg/day [4, 19]: 89%
Acylamidase activity, Human Liver [3]: 64 nmol/mg protein/hr

CCCCCCCOC(=O)Nc1nc(=O)n([C@@H]2O[C@H](C)[C@@H](O)[C@H]2O)cc1F [Example 27, 5'-deoxy-5-fluoro-N^4-(heptyloxycarbonyl)cytidine]
Acylamidase activity, Monkey Liver [1]: 59 nmol/mg protein/hr
Fecal observation [4, 6]: N
Fecal observation [4, 7]: N
inhibition in vivo at 0.13 mmol/kg/day [4, 8]: 26%
inhibition in vivo at 0.3 mmol/kg/day [4, 9]: 72%
inhibition in vivo at 0.67 mmol/kg/day [4, 10]: 84%
inhibition in vivo at 1.5 mmol/kg/day [4, 11]: 94%
inhibition in vivo at 2.25 mmol/kg/day [4, 12]: 103%
Acylamidase activity, Human Liver [3]: 110 nmol/mg protein/hr

C[C@H]1O[C@@H](n2cc(F)c(NC(=O)OCCCC3CCCCC3)nc2=O)[C@H](O)[C@@H]1O [Example 21, N^4-[(3-cyclohexylpropyl)oxycarbonyl]-5'-deoxy-5-fluorocytidine]
Acylamidase activity, Monkey Liver [1]: 26 nmol/mg protein/hr
Acylamidase activity, Human Liver [3]: 82 nmol/mg protein/hr

CCCCCOC(=O)Nc1nc(=O)n([C@@H]2O[C@H](C)[C@@H](O)[C@H]2O)cc1F [Example 12, 5'-deoxy-5-fluoro-N^4-(pentyloxycarbonyl)cytidine]
Acylamidase activity, Monkey Liver [1]: 29 nmol/mg protein/hr
Plasma 5'-DFUR AUC [2]: 2900 ng·h/mL
Fecal observation [4, 15]: N
inhibition in vivo at 0.13 mmol/kg/day [4, 14]: 68%
inhibition in vivo at 0.3 mmol/kg/day [4, 16]: 69%
inhibition in vivo at 0.67 mmol/kg/day [4, 17]: 86%
inhibition in vivo at 1 mmol/kg/day [4, 18]: 86%
inhibition in vivo at 1.5 mmol/kg/day [4, 19]: 96%
Acylamidase activity, Human Liver [3]: 190 nmol/mg protein/hr

C[C@H]1O[C@@H](n2cc(F)c(NC(=O)OCC3CCCCC3)nc2=O)[C@H](O)[C@@H]1O [Example 16, N^4-[(cyclohexylmethoxy)carbonyl]-5'-deoxy-5-fluorocytidine]
Acylamidase activity, Monkey Liver [1]: 33 nmol/mg protein/hr
Plasma 5'-DFUR AUC [2]: 2520 ng·h/mL
Acylamidase activity, Human Liver [3]: 210 nmol/mg protein/hr

CCCC(CCC)COC(=O)Nc1nc(=O)n([C@@H]2O[C@H](C)[C@@H](O)[C@H]2O)cc1F [Example 25, 5'-deoxy-5-fluoro-N^4-[(2-propylpentyl)oxycarbonyl]cytidine]
Acylamidase activity, Monkey Liver [1]: < 13 nmol/mg protein/hr
Acylamidase activity, Human Liver [3]: 160 nmol/mg protein/hr

C[C@H]1O[C@@H](n2cc(F)c(NC(=O)OCCCc3ccccc3)nc2=O)[C@H](O)[C@@H]1O [Example 22, 5'-deoxy-5-fluoro-N^4-[(3-phenylpropyl)oxycarbonyl]cytidine]
Acylamidase activity, Monkey Liver [1]: 43 nmol/mg protein/hr
Acylamidase activity, Human Liver [3]: 110 nmol/mg protein/hr

C[C@H]1O[C@@H](n2cc(F)c(NC(=O)OCCC(C)(C)C)nc2=O)[C@H](O)[C@@H]1O [Example 29, 5'-Deoxy-N^4-[(3,3-dimethylbutoxy)carbonyl]-5-fluorocytidine]
Acylamidase activity, Monkey Liver [1]: 22 nmol/mg protein/hr
Plasma 5'-DFUR AUC [2]: 2090 ng·h/mL
Acylamidase activity, Human Liver [3]: 50 nmol/mg protein/hr
